Columns and labels:
[1] = system: Anti-phenylcyclidine antibodies; test: Ion-capture alkaline phosphatase labeled chemiluminescence competitive binding immunoassay for phenylcyclidine in urine; conditions: 0 ng/mL: 3526
[2] = system: Monoclonal anti-phenylcyclidine antibody; test: Ion-capture acridinium labeled chemiluminescence competitive binding immunoassay for phenylcyclidine (PCP) in urine; conditions: for Signal Counts: integrated for eight seconds, 0 ng/mL: 188329
Method: Monoclonal anti-phenylcyclidine antibody was labeled with acridinium sulfonamide using EDAC coupling procedures known in the art. It was kept in the same buffer used for the anti-core conjugate of Example 3.
80 μL of IMx Tris buffer solution followed by 80 μL Celquat™ L-200 solutions were dispensed on the glass fiber matrices of the disposable reaction tray. Solutions were dispensed using two FMI-RH pumps and controlled via a triac board by an Intel 310 Development System (Intel Inc., Sunnyvale, Calif.). The tray was moved on a linear track using a timing belt and a stepper motor. The stepper motor was controlled by a board employing components known in the art. After 4.8 minutes, 50 μL of calibrator (sample) was pipetted into the shallow reaction wells of a disposable reaction tray, using an automated pipettor. 50 μL of acridinium labeled anti-PCP antibodies was dispensed into each incubation well. The mixture was incubated for 9.6 minutes in a heated tunnel at 32° C. with the disposable device moving into the tunnel by the timing belt in steps at the rate of 0.8 inches per minute, the reaction tray being stationary for 36 seconds after each step for a reaction step to take place. After 9.6 minutes incubation on the moving timing belt, 50 μL a solution containing PCP-PGA capture reagent at a concentration of 1.9 mg PGA/mL was dispensed into the incubation well through a tip centered on the well. The capture reagent solution was dispensed by an FMI-RH pump and controlled by the 310 Development system through a triac interface board. The reaction mixture was further incubated for 9.6 minutes. The quaternary ammonium polymer-treated glass fiber matrices were rinsed with 100 μL of the IMx buffer before reaction mixture transfer.
As the disposable tray was positioned under the transfer device as described herein, the reaction mixture was transferred and washed from the shallow incubation well onto the pre-treated glass fiber matrix in the detection well. The disposable tray was moved on the timing belt to allow subsequent well pairs to be located under the transfer device and to affect transfer of the reaction mixture. The disposable device was then moved to a read position, where the chemiluminescence detection head of the present invention was lowered to mate with the surface feature on the first two wells on the disposable to create a light-tight seal. The retained and immobilized immune complex on the glass fiber matrix was triggered using 0.3% alkaline peroxide solution in 0.25M NaOH and the signal from each PMT/amplifier was controlled by a counter/timer board and each side was triggered with an independent pump. The photon counter signal was integrated for eight seconds.

[3] = system: anti-PCP antibody; test: Fluorescence polarization competitive binding assay in solution (TDx), fluorescein-labeled PCP analog; conditions: 0 ng/mL: 198

## c1ccc(C2(N3CCCCC3)CCCCC2)cc1 [Phenylcyclidine, phenylcyclidine]
[1]; 25 ng/mL phenylcyclidine in human urine
  Chemiluminescence signal: 2162 counts/6 seconds
[1]; 60 ng/mL phenylcyclidine in human urine
  Chemiluminescence signal: 1440 counts/6 seconds
[1]; 250 ng/mL phenylcyclidine in human urine
  Chemiluminescence signal: 1016 counts/6 seconds
[2]; 25 ng/mL PCP in human urine
  % Inhibition: 73.3%
  Signal Counts: 50347 counts
[2]; 60 ng/mL PCP in human urine
  % Inhibition: 83.6%
  Signal Counts: 30839 counts
[2]; 120 ng/mL PCP in human urine
  % Inhibition: 87.3%
  Signal Counts: 23977 counts
[2]; 250 ng/mL PCP in human urine
  % Inhibition: 89.2%
  Signal Counts: 20379 counts
[2]; 500 ng/mL PCP in human urine
  % Inhibition: 89.5%
  Signal Counts: 19759 counts
[3]; Table 4, 25 ng/mL
  Net Polarization: 173 ΔmP
[3]; Table 4, 60 ng/mL
  Net Polarization: 144 ΔmP
[3]; Table 4, 250 ng/mL
  Net Polarization: 82 ΔmP
[3]; Table 5, 25 ng/mL
  Net Polarization: 173
[3]; Table 5, 60 ng/mL
  Net Polarization: 144
[3]; Table 5, 120 ng/mL
  Net Polarization: 112
[3]; Table 5, 250 ng/mL
  Net Polarization: 82
[3]; Table 5, 500 ng/mL
  Net Polarization: 65

From patent US5089424A, “Method and apparatus for heterogeneous chemiluminescence assay” (Abbott Laboratories, priority 1989, dated 1992)
